# According to ChEMBL document CHEMBL3227947, “Quantitative structure-activity relationship of 5-(X-benzyl)-2,4-diaminopyrimidines inhibiting bovine liver dihydrofolate reductase” (J Med Chem, 1979):
# Biological target: T1, Dihydrofolate reductase (Bos taurus) (UniProt P00376)
# T1 sequence (whole entry): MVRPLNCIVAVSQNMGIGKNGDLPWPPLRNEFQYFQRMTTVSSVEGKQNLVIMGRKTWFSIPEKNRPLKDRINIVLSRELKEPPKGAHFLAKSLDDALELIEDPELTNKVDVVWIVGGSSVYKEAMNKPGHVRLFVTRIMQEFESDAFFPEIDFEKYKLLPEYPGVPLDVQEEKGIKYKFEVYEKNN
# Description: Inhibition of bovine liver dihydrofolate reductase using dihydrofolic acid as substrate
row,log(1/I50),SMILES
1,5.15,COc1ccc(Cc2cnc(N)nc2N)cc1OC
2,5.02,COc1cccc(Cc2cnc(N)nc2N)c1
3,4.99,Nc1ncc(Cc2ccc(OC(F)(F)F)cc2)c(N)n1
4,5.16,CC(=O)Nc1ccc(Cc2cnc(N)nc2N)cc1[N+](=O)[O-]
5,4.57,Nc1ccc(Cc2cnc(N)nc2N)cc1
6,4.8,Cc1ccc(Cc2cnc(N)nc2N)cc1
7,5.53,Nc1ncc(Cc2cccc(C(F)(F)F)c2)c(N)n1
